Data reported in patent US7217722B2 (Kirin Beer Kabushiki Kaisha, priority 2000, dated 2007).

molecular target: Rho kinase (fused protein of bovine Rho kinase catalyst region and glutathione S-transferase) (Bos taurus, UniProt Q28021); test: Rho kinase inhibitory activity (phosphorylation of S6 231–239 substrate, γ32P-ATP); assay type: biochemical; settings: concentration inhibiting substrate phosphorylation by 50%
Method: This permits the substrate to be labeled with the radioisotope.
Thereafter, the substrate was adsorbed to a filter paper. ATP was washed away with a phosphoric acid solution, and the amount of the phosphorylated substrate was then measured with a liquid scintillation counter.

Rho kinase (fused protein of bovine Rho kinase catalyst region and glutathione S-transferase), sequence (Q28021 92-354 limits assumed): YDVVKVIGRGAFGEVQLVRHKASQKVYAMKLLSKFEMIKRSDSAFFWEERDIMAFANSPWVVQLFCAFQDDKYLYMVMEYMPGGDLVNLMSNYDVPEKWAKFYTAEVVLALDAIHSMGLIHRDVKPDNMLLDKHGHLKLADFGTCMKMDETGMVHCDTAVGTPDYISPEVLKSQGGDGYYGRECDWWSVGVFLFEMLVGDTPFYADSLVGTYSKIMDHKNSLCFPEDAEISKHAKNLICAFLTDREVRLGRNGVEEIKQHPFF

SMILES	IC50
O=C(Nc1ccncc1)Nc1c(Cl)cc(Cl)cc1Cl [Example 1, N-(4-Pyridyl)-N′-(2,4,6-trichlorophenyl)urea]	200 nM
O=C(COc1c(Br)cc(F)cc1Br)Nc1ccncc1 [Example 2, N1-(4-Pyridyl)-2-(2,6-dibromo-4-fluorophenoxy)acetamide]	2210 nM
O=C(COc1c(Cl)cccc1Cl)Nc1ccncc1 [Example 3, N1-(4-Pyridyl)-2-(2,6-dichlorophenoxy)acetamide]	910 nM
O=C(/C=C/c1c(Cl)cccc1Cl)Nc1ccncc1 [Example 7, N1-(4-Pyridyl)-(E)-3-(2,6-dichlorophenyl)-2-propeneamide]	2540 nM
O=C(Nc1ccncc1)Nc1c(F)cccc1F [Example 8, N-(2,6-Difluorophenyl)-N′-(4-pyridyl)urea]	2000 nM
O=C(Nc1ccncc1)Nc1c(Cl)cccc1Cl [Example 9, N-(2,6-Dichlorophenyl)-N′-(4-pyridyl)urea]	850 nM
O=C(Nc1ccc2[nH]ncc2c1)Nc1c(Cl)cccc1Cl [Example 13, N-(2,6-Dichlorophenyl)-N′-(1H-5-indazolyl)urea]	980 nM
O=C(COc1c(Cl)cccc1Cl)Nc1ccc2[nH]ncc2c1 [Example 14, N1-(1H-5-Indazolyl)-2-(2,6-dichlorophenoxy)acetamide]	1140 nM
O=C(COc1c(Cl)cc(F)cc1Cl)Nc1ccc2[nH]ncc2c1 [Example 15, N1-(1H-5-Indazolyl)-2-(2,6-dichloro-4-fluorophenoxy)acetamide]	460 nM
O=C(CSc1c(Cl)cccc1Cl)Nc1ccncc1 [Example 17, N1-(4-Pyridyl)-2-[(2,6-dichlorophenyl)-sulfanyl]acetamide]	9600 nM
O=C(Nc1ccncc1)Nc1c(F)cccc1Cl [Example 18, N-(2-Chloro-6-fluorophenyl)-N′-(4-pyridyl)urea]	2870 nM
O=C(Nc1ccncc1)NC1CCCCC1 [Example 19, N-Cyclohexyl-N′-(4-pyridyl)urea]	7260 nM
Brc1cccc(CN2CCC(Nc3ccc4[nH]ncc4c3)CC2)c1 [Example 23]	124 nM
O=C(COc1c(Cl)cc(F)cc1Cl)Nc1ccncc1 [Example 24, N1-(4-Pyridyl)-2-(2,6-dichloro-4-fluorophenoxy)acetamide]	480 nM
CCOC(=O)c1cc(Cl)c(OCC(=O)Nc2ccncc2)c(Cl)c1 [Example 26, Ethyl 3,5-dichloro-4-[2-oxo-2-(4-pyridylamino)ethoxy]benzoate]	1030 nM
O=C(COc1c(F)cc(F)cc1F)Nc1ccncc1 [Example 28, N1-(4-Pyridyl)-2-(2,4,6-trifluorophenoxy)acetamide]	8110 nM
CCC(=O)c1cc(F)c(OCC(=O)Nc2ccncc2)c(F)c1 [Example 29, N1-(4-Pyridyl)-2-(2,6-difluoro-4-propionyl-phenoxy)acetamiden]	8590 nM
Cc1cc(Cl)c(OCC(=O)Nc2ccncc2)c(Cl)c1 [Example 30, N1-(4-Pyridyl)-2-(2,6-dichloro-4-methylphenoxy)acetamide]	1150 nM
O=C(CC1CCCCC1)Nc1ccncc1 [Example 31, N1-(4-Pyridyl)-2-cyclohexylacetamide]	5290 nM
O=C(COc1c(Cl)cc(F)cc1Cl)Nc1ncnc2[nH]ncc12 [Example 32, N1-(1H-Pyrazolo[3,4-d]pyrimidin-4-yl)-2-(2,6-dichloro-4-fluorophenoxy)acetamide]	1370 nM
O=C(Nc1ccc2[nH]ncc2c1)C1CCCCC1 [Example 33]	470 nM
O=C(CC1CCCCC1)Nc1ccc2[nH]ncc2c1 [Example 34, N1-(1H-5-Indazoyl)-1-cyclohexylacetamide]	870 nM
O=C(/C=C/c1ccccc1O)Nc1ccc2[nH]ncc2c1 [Example 35, N1-(1H-5-Indazolyl)-(E)-3-(2-hydroxyphenyl)-2-propeneamide]	1280 nM
O=C(/C=C/c1cccc(O)c1)Nc1ccc2[nH]ncc2c1 [Example 36, N1-(1H-5-Indazolyl)-(E)-3-(3-hydroxyphenyl)-2-propeneamide]	600 nM
O=C(/C=C/c1ccc(O)cc1)Nc1ccc2[nH]ncc2c1 [Example 37, N1-(1H-5-Indazolyl)-(E)-3-(4-hydroxyphenyl)-2-propeneamide]	305 nM
O=C(/C=C/c1ccc(O)c(O)c1)Nc1ccc2[nH]ncc2c1 [Example 38, N1-(1H-5-Indazolyl)-(E)-3-(3,4-dihydroxyphenyl)-2-propeneamide]	107 nM
O=C(Cc1ccc([N+](=O)[O-])cc1[N+](=O)[O-])Nc1ccc2[nH]ncc2c1 [Example 39, N1-(1H-5-Indazolyl)-2-(2,4-dinitrophenyl)acetamide]	122 nM
COc1cc(/C=C/C(=O)Nc2ccc3[nH]ncc3c2)ccc1O [Example 40, N1-(1H-5-Indazolyl)-(E)-3-(4-hydroxy-3-methoxyphenyl)-2-propeneamide]	231 nM
COc1ccc(/C=C/C(=O)Nc2ccc3[nH]ncc3c2)cc1O [Example 41, N1-(1H-5-Indazolyl)-(E)-3-(3-hydroxy-4-methoxyphenyl)-2-propeneamide]	224 nM

Second part, the compound after the results:

IC50	SMILES
90 nM	c1ccc(CNC2CCC(Nc3ccc4[nH]ncc4c3)CC2)cc1 (mixture of isomers) [Example 171, N1-Benzyl-N4-(1H-5-indazolyl)-1,4-cyclohexanediamine]
605 nM	COc1ccc(/C=C/C(=O)Nc2ccc3[nH]ncc3c2)cc1OC [Example 42, N1-(1H-5-Indazolyl)-(E)-3-(3,4-dimethoxyphenyl)-2-propeneamide]
394 nM	O=C(Cc1ccc(O)c(O)c1)Nc1ccc2[nH]ncc2c1 [Example 44, N1-(1H-5-Indazolyl)-2-(3,4-dihydroxyphenyl)acetamide]
153 nM	O=C(Cc1ccc2c(c1)OCO2)Nc1ccc2[nH]ncc2c1 [Example 45, N1-(1H-5-Indazolyl)-2-(1,3-benzodioxol-5-yl)acetamide]
735 nM	O=C(CCc1ccc(O)cc1)Nc1ccc2[nH]ncc2c1 [Example 47, N1-(1H-5-Indazolyl)-3-(4-hydroxyphenyl)-propaneamide]
191 nM	O=C(Cc1cccc([N+](=O)[O-])c1)Nc1ccc2[nH]ncc2c1 [Example 48, N1-(1H-5-Indazolyl)-2-(3-nitrophenyl)acetamide]
513 nM	O=C(Cc1ccc([N+](=O)[O-])cc1)Nc1ccc2[nH]ncc2c1 [Example 49, N1-(1H-5-Indazolyl)-2-(4-nitrophenyl)acetamide]
326 nM	O=C(CNc1ccc(O)cc1)Nc1ccc2[nH]ncc2c1 [Example 50, N1-(1H-5-Indazolyl)-2-(4-hydroxyanilino)acetamide]
459 nM	O=C(COc1ccc(O)cc1)Nc1ccc2[nH]ncc2c1 [Example 51, N1-(1H-5-Indazolyl)-2-(4-hydroxyphenoxy)acetamide]
230 nM	O=C(CCc1ccc2c(c1)OCO2)Nc1ccc2[nH]ncc2c1 [Example 52, N1-(1H-5-Indazolyl)-3-(1,3-benzodioxol-5-yl)propaneamide]
4140 nM	O=C(NCc1ccc(Cl)cc1Cl)Nc1ccncc1 [Example 53, N-(2,4-Dichlorobenzyl)-N′-(4-pyridyl)urea]
1040 nM	O=C(NCc1c(Cl)ccc(Cl)c1Cl)Nc1ccncc1 [Example 55, N′-(4-Pyridyl)-N-(2,3,6-trichlorobenzyl)urea]
1110 nM	O=C(Nc1ccncc1)Nc1c(F)cc(F)cc1Br [Example 57]
13500 nM	O=C(Nc1ccncc1)Nc1c(F)cccc1C(F)(F)F [Example 58]
7270 nM	O=C(Nc1ccncc1)Nc1ccc(F)cc1C(F)(F)F [Example 59, N-[4-Fluoro-2-(trifluoromethyl)phenyl]-N′-(4-pyridyl)urea]
11000 nM	O=C(Nc1ccncc1)Nc1ccc(Br)cc1F [Example 60, N-(4-Bromo-2-fluorophenyl)-N′-(4-pyridyl)urea]
6950 nM	O=C(NCc1c(F)cccc1F)Nc1ccncc1 [Example 61, N-(2,6-Difluorobenzyl)-N′-(4-pyridyl)urea]
2500 nM	O=C(Nc1ccncc1)Nc1c(Cl)cc(C(F)(F)F)cc1Cl [Example 63, N-[2,6-Dichloro-4-(trifluoromethyl)phenyl]-N′-(4-pyridyl)urea]
2190 nM	O=C(NCc1c(F)cccc1C(F)(F)F)Nc1ccncc1 [Example 64, N-[2-Fluoro-6-(trifluoromethyl)benzyl]-N′-(4-pyridyl)urea]
9000 nM	NC(=O)c1ccc(NC(=O)Nc2c(Cl)cccc2Cl)cc1 [Example 65, 4-{[(2,6-Dichloroanilino)carbonyl]amino}-benzamide]
6570 nM	O=C(Nc1ccncc1)Nc1c[nH]c2ccccc12 [Example 66, N-(1H-3-Indolyl)-N′-(4-pyridyl)urea]
1920 nM	O=C(Nc1ccc2c(c1)C(=O)NC2=O)Nc1c(Cl)cccc1Cl [Example 67, N-(2,6-Dichlorophenyl)-N′-(1,3-dioxo-2,3-dihydro-1H-isoindolyl)urea]
110 nM	O=C(NCc1c(Cl)cccc1Cl)Nc1ccc2c(c1)C(=O)NC2=O [Example 68, N1-(2,6-Dichlorobenzyl)-N′-(1,3-dioxo-2,3-dihydro-1H-5-isoindolyl)urea]
2270 nM	O=C(Nc1ccc2c(c1)C(=O)NC2=O)Nc1c[nH]c2ccccc12 [Example 69, N-(1,3-Dioxo-2,3-dihydro-1H-5-isoindolyl)-N′-(1H-3-indolyl)urea]
400 nM	O=C(Nc1ccc2c(c1)C(=O)NC2=O)Nc1ccc2[nH]ccc2c1 [Example 70, N-(1,3-Dioxo-2,3-dihydro-1H-5-isoindolyl)-N′-(1H-5-indolyl)urea]
900 nM	O=C(Nc1ccccc1)Nc1ccc2c(c1)C(=O)NC2=O [Example 72, N1-(1,3-Dioxo-2,3-dihydro-1H-5-isoindolyl)-N′-phenylurea]
410 nM	O=C(NCc1ccccc1)Nc1ccc2c(c1)C(=O)NC2=O [Example 73, N-Benzyl-N′-(1,3-dioxo-2,3-dihydro-1H-5-isoindolyl)urea]
8300 nM	CCCNC(=O)Nc1ccc2c(c1)C(=O)NC2=O [Example 74, N-(1,3-Dioxo-2,3-dihydro-1H-5-isoindolyl)-N′-propylurea]
